Results reported in ChEMBL document CHEMBL5725682, “Therapeutic inhibitory compounds” (2018).

What was measured:
[1] = In Vitro Contact Cellular Assay: The test compounds at various concentrations, also prepared by serial dilutions as described above, are added to the test wells. The volume of test compound added to each test well was 12.5 μL, to yield final concentrations of 20 μM, 5 μM, 1.25 μM, 312.5 nM, 78.125 nM, 19.531 nM, 4.883 nM, 1.221 nM, 0.305 nM, and 0.076 nM. Each test compound concentration was tested in duplicates.In addition to the inhibitor control and test wells, the 96 well assay plate includes positive control wells which contained the mixture of human plasma and ellagic acid without C1NH inhibitor or test compounds, and background wells which contained neither the mixture of human plasma and ellagic acid nor the test compounds. The total volume of liquid in positive control and background wells was brought up to 35 μL, using the assay buffer.The assay plate containing C1NH inhibitors and test compounds mixed with human plasma and ellagic acid and appropriate controls was incubated at 37° C. for 5 min. A 10 mM stock solution of substrate Z-FR-2-AMC was diluted to 133.2 μM in the assay buffer, and 15 μL of the diluted substrate was added to each well, to yield a final substrate concentration of 40 μM in each well. The reagents were mixed well by shaking the plate gently for 30 sec.The enzyme reaction was quantified by immediate kinetic reading of the assay plate using excitation/emission wavelengths of 330 nm/440 nm respectively. Fluorescence intensity was recorded for 60 min, using a time interval of 43 sec.The inhibition activity of the test compounds were evaluated using the EC50 values, calculated according to the dose-response curve of the test compounds, fitted using the log(inhibitor)−response (variable slope)¿ equation in GraphPadPrism software (GraphPad Software, Inc.).
Plasma kallikrein = Plasma kallikrein (Homo sapiens, UniProt P03952); assay: In Vitro Enzyme Inhibition of hPK: A 10 mM solution of the test compound was made in DMSO. […] A control tube containing only DMSO is included. […] 50 μL was removed from this mixture and placed into duplicate wells on a Microfluor 1Black U-bottom microtiter plate (Thermo Scientific). This plate was incubated for 5 minutes at 37° C. To each well, 50 μL of pre-warmed 2×PFR-AMC was added to start the enzymatic reaction. Cleavage of PFR-AMC was monitored in a Biotek Synergy H4 reader set at 37° C. Readings are taken every 43 seconds for 1 hour. […] The IC50 is calculated using the Gen5 (Biotek Instruments).
Chain of Plasma kallikrein (P03952 20-390 limits assumed): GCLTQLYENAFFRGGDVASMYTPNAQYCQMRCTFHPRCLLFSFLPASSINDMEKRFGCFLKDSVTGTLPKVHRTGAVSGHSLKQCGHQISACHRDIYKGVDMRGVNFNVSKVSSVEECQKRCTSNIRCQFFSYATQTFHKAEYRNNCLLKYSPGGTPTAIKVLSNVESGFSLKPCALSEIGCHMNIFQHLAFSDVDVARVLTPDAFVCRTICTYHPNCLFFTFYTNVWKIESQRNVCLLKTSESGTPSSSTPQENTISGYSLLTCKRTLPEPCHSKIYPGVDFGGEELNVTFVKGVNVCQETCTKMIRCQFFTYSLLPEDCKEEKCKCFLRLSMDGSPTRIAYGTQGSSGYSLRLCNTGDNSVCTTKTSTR
Chain of Plasma kallikrein (P03952 391-638 limits assumed): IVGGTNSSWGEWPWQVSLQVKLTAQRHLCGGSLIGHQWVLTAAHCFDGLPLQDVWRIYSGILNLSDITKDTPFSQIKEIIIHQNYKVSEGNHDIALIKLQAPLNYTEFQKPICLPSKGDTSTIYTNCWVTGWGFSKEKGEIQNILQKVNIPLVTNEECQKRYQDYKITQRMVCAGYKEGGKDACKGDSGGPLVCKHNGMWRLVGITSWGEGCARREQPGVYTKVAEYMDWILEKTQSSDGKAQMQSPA

SMILES | EC50 [1] | IC50 (Plasma kallikrein) [nM]
Cc1cc(C(=O)NCc2c(C)cc(N)nc2C)cc(Cc2ccc3ncc(Cl)cc3c2)n1 | < 100 nM | 
Cc1cc(N)nc(C)c1CNC(=O)c1ccnc(Cc2ccc3ncc(CC(F)F)cc3c2)c1 | < 100 nM | < 100
Cc1cc(N)nc(C)c1CNC(=O)c1ccnc(Cc2cccc(-c3noc(=O)[nH]3)c2)c1 |  | > 10000
Cc1cc(N)nc(C)c1CNC(=O)c1cc(Cc2ccc3ncc(Cl)cc3c2)nc(C(N)=O)c1 | in the range around 550 nM | 

More lines, now with the values ahead:

EC50 [1] | IC50 (Plasma kallikrein) [nM] | SMILES
 | < 100 | Nc1nccc2cc(CNC(=O)c3ccnc(Cc4ccc5ncc(N6CCCC6)cc5c4)c3)ccc12
< 100 nM | < 100 | Cc1nc(N)ccc1CNC(=O)c1ccnc(Cc2ccc3ncc(C4CC4)cc3c2)c1
 | > 10000 | Cc1nc2c(cc1CNC(=O)c1ccnc(Cc3ccc4ncc(Cl)cc4c3)c1)CNC2
< 100 nM |  | Nc1nccc2cc(CNC(=O)c3ccnc(Cc4ccc5ncc(Cl)cc5c4)c3)ccc12
